From ChEMBL document CHEMBL3414566, “Synthesis, docking and ADMET studies of novel chalcone triazoles for anti-cancer and anti-diabetic activity” (Eur J Med Chem, 2015)

Tests used:
A549 = assay: Anticancer activity against human A549 cells by MTT assay; assay type: functional, cell-based
[1] = Anticancer activity against human IMR32 cells by MTT assay; assay type: functional, cell-based, IMR-32
MCF7 = assay: Anticancer activity against human MCF7 cells by MTT assay; assay type: functional, cell-based
[2] = Inhibition of rat intestinal alpha-glucosidase using nitrophenyl-alpha-D-glucopyranoside by spectrophotometrically
HepG2 = assay: Anticancer activity against human HepG2 cells by MTT assay; assay type: functional, cell-based
DU-145 = assay: Anticancer activity against human DU145 cells by MTT assay; assay type: functional, cell-based
[3] = Homo sapiens, A549, read-out: IC50
[4] = Homo sapiens, HepG2, read-out: IC50
[5] = Homo sapiens, IMR-32, read-out: IC50
[6] = Homo sapiens, MCF7, read-out: IC50
[7] = Homo sapiens, DU-145, read-out: IC50

SMILES | IC50 (A549; [3]) | IC50 (MCF7; mcf7) | IC50 ([2]; read-out: IC50) | IC50 (HepG2; [4]) | IC50 (DU-145; du-145) | IC50 (A549; a549) | IC50 [2] | IC50 (MCF7; [6]) | IC50 (HepG2; hepg2) | IC50 (DU-145; [7]) | IC50 ([1]; imr-32) | IC50 [1, 5]
CCCCCn1cc(COc2ccc(/C=C/C(=O)c3cc4c(cc3O)OC(C)(C)CC4)cc2)nn1 | 91.3 µM | Not Active | 74.9 µM | 95.8 µM | Not Active |  |  |  |  |  | Not Active | 
CCCCCCCCn1cc(COc2ccc(/C=C/C(=O)c3ccc4c(c3O)CCC(C)(C)O4)cc2)nn1 |  | Not Active |  | 74.1 µM | Not Active | Not Active | Not Active |  |  |  | Not Active | 
COc1ccc(-n2cc(COc3ccc(/C=C/C(=O)c4cc5c(cc4O)OC(C)(C)CC5)cc3)nn2)c([N+](=O)[O-])c1 | 99.5 µM | Not Active |  |  | Not Active |  | Not Active |  | Not Active |  | Not Active | 
CCc1ccccc1-n1cc(COc2ccc(/C=C/C(=O)c3ccc4c(c3O)CCC(C)(C)O4)cc2)nn1 | 112 µM | Not Active | 67.8 µM | 67.8 µM | Not Active |  |  |  |  |  | Not Active | 
CCCCCCCCn1cc(COc2ccc(/C=C/C(=O)c3cc4c(cc3O)OC(C)(C)CC4)cc2)nn1 | 50.8 µM | Not Active |  | 127 µM | Not Active |  | Not Active |  |  |  |  | 7.09 µM
Cc1c(-n2cc(COc3ccc(/C=C/C(=O)c4ccc5c(c4O)CCC(C)(C)O5)cc3)nn2)cccc1[N+](=O)[O-] |  |  |  | 115 µM | Not Active | Not Active | Not Active | 145 µM |  |  |  | 73.5 µM
CC1(C)CCc2cc(C(=O)/C=C/c3ccc(OCc4cn(-c5ccc(Br)cc5)nn4)cc3)c(O)cc2O1 | 80 µM | Not Active |  |  | Not Active |  | Not Active |  | Not Active |  |  | 69.4 µM
Cc1ccc(-n2cc(COc3ccc(/C=C/C(=O)c4cc5c(cc4O)OC(C)(C)CC5)cc3)nn2)cc1Br | 125 µM | Not Active |  | 117 µM | Not Active |  | Not Active |  |  |  | Not Active | 
CC1(C)CCc2cc(C(=O)/C=C/c3ccc(OCc4cn(-c5ccc(Cl)cc5)nn4)cc3)c(O)cc2O1 | 75.5 µM | Not Active |  |  | Not Active |  | Not Active |  | Not Active |  |  | 92.1 µM
Cc1ccc(-n2cc(COc3ccc(/C=C/C(=O)c4ccc5c(c4O)CCC(C)(C)O5)cc3)nn2)cc1Br |  | Not Active |  | 110 µM | Not Active | Not Active | Not Active |  |  |  | Not Active | 
CC1(C)CCc2c(ccc(C(=O)/C=C/c3ccc(OCc4cn(Cc5ccc([N+](=O)[O-])cc5)nn4)cc3)c2O)O1 | 69.9 µM |  |  | 69.9 µM |  |  | Not Active | 17.1 µM |  | 29.9 µM |  | 17.3 µM
CC(=O)c1ccc(-n2cc(COc3ccc(/C=C/C(=O)c4ccc5c(c4O)CCC(C)(C)O5)cc3)nn2)cc1 | 149 µM |  |  | 91.4 µM | Not Active |  | Not Active | 171 µM |  |  |  | 89.5 µM
Cc1c(-n2cc(COc3ccc(/C=C/C(=O)c4cc5c(cc4O)OC(C)(C)CC5)cc3)nn2)cccc1[N+](=O)[O-] | 65.9 µM |  |  | 109 µM | Not Active |  | Not Active | 176 µM |  |  | Not Active | 
CCc1ccccc1-n1cc(COc2ccc(/C=C/C(=O)c3cc4c(cc3O)OC(C)(C)CC4)cc2)nn1 | 137 µM | Not Active |  | 115 µM | Not Active |  | Not Active |  |  |  | Not Active | 

Second part, led by results:

IC50 (A549; [3]) | IC50 (MCF7; mcf7) | IC50 ([2]; read-out: IC50) | IC50 (HepG2; [4]) | IC50 (DU-145; du-145) | IC50 (A549; a549) | IC50 [2] | IC50 (MCF7; [6]) | IC50 (HepG2; hepg2) | IC50 (DU-145; [7]) | SMILES | IC50 ([1]; imr-32) | IC50 [1, 5]
129 µM | Not Active |  | 136 µM | Not Active |  | Not Active |  |  |  | CC1(C)CCc2c(ccc(C(=O)/C=C/c3ccc(OCc4cn(-c5ccc(Br)cc5)nn4)cc3)c2O)O1 |  | 117 µM
 |  |  | 120 µM | Not Active | Not Active | Not Active | 73.1 µM |  |  | COc1ccc(-n2cc(COc3ccc(/C=C/C(=O)c4ccc5c(c4O)CCC(C)(C)O5)cc3)nn2)c([N+](=O)[O-])c1 |  | 132 µM
35.8 µM | Not Active |  | 109 µM | Not Active |  | Not Active |  |  |  | CC1(C)CCc2cc(C(=O)/C=C/c3ccc(OCc4cn(Cc5ccc([N+](=O)[O-])cc5)nn4)cc3)c(O)cc2O1 |  | 108 µM
 | Not Active | 128 µM | 102 µM | Not Active | Not Active |  |  |  |  | CC1(C)CCc2c(ccc(C(=O)/C=C/c3ccc(OCc4cn(-c5ccc(Cl)cc5)nn4)cc3)c2O)O1 | Not Active | 
48.6 µM |  | 102 µM | 9.82 µM | Not Active |  |  | 191 µM |  |  | CCCCCn1cc(COc2ccc(/C=C/C(=O)c3ccc4c(c3O)CCC(C)(C)O4)cc2)nn1 | Not Active | 
69.3 µM |  |  | 1.05 µM |  |  | Not Active |  |  | 17.7 µM | COc1cccc2c1C(=O)c1c(O)c3c(c(O)c1C2=O)C[C@@](O)(C(=O)CO)C[C@@H]3O[C@H]1C[C@H](N)[C@H](O)[C@H](C)O1 [DOXORUBICIN] |  | 44.4 µM
 | Not Active | 23.9 µM |  | Not Active | Not Active |  |  | Not Active |  | C[C@H]1O[C@H](O[C@H]2[C@H](O)[C@@H](O)[C@@H](O[C@H]3[C@H](O)[C@@H](O)C(O)O[C@@H]3CO)O[C@@H]2CO)[C@H](O)[C@@H](O)[C@@H]1N[C@H]1C=C(CO)[C@@H](O)[C@H](O)[C@H]1O (stereo partly specified) [ACARBOSE] | Not Active | 
66.3 µM |  |  |  | Not Active |  | Not Active | 182 µM | Not Active |  | CC(=O)c1ccc(-n2cc(COc3ccc(/C=C/C(=O)c4cc5c(cc4O)OC(C)(C)CC5)cc3)nn2)cc1 | Not Active | 
